row,Compound,melting point
1,COc1cc(NC(=O)Nc2ccc(C3=CCN(C(=O)Nc4ccc(OCC(O)CO)cc4Cl)CC3)cc2)cc(OC)c1 (stereo not given),108 to 111 °C
2,N=C(NCC1CCCO1)Nc1c([N+](=O)[O-])cnc2ccccc12 (stereo not given),210 to 212 °C
3,CC(C)CS(=O)(=O)c1ccnc(OS(C)(=O)=O)c1,75.5 to 76.5 °C
4,CC1=CC(C)(C)N2C(=O)C(=O)c3cccc1c32,170 to 176 °C
5,O=C(O)CC1=Cc2ccccc2C1,114 to 115 °C
6,CCN1c2ncc(COc3ccncc3)cc2C(=O)N(C)c2ccc(Cl)nc21,169 to 170 °C
7,CCCC(C)(C)c1cc(N2CCC(C)C2=O)no1 (stereo not given),30 to 31 °C
8,CC(C)Oc1ncc(OC(=O)C2(C)CC2)cc1Cl,116 to 117 °C
9,CCOC(=O)c1cc(C(=O)C=CN(C)C)c(=O)[nH]c1C(=O)OCC,71 °C
10,CC(C)CCCCCCCCCCCCc1ccc(O)cc1O,70 °C
11,CCOP(=O)(CNC(=O)C[C@H]1O[C@H](c2cccc(OC)c2OC)c2cc(Cl)ccc2N(CC(C)(C)CO)C1=O)OCC,138 to 140 °C
12,O=C1CCCCN1Cc1ccc[nH]1,106 °C
13,COc1cc(N)c(SCc2ccccc2)cc1OC,86 to 88 °C
14,COc1ccc2c(c1OCc1ccccc1)CC(C(=O)O)N(C(=O)Cc1c(Cl)cccc1Cl)C2 (racemic),205 to 207 °C
15,CC(C)(C)c1ccccc1NC(=O)C(=O)O,111 to 113 °C
16,O=C(O)CNC(=O)c1c(Cl)cc(N2C(=O)N3CCCC3(Cc3ccc(Br)cc3)C2=O)cc1Cl (stereo not given),157 to 158 °C
17,CON=C(c1ccccc1)c1ccccc1N,138 °C
18,CCC(=NO)C(C)(C)NCC(Cn1ccnc1[N+](=O)[O-])ONC(C)(C)C(CC)=NO (stereo not given),143 to 144 °C
19,COc1ccnc(C(C)Sc2nc3cc(OC(F)(F)C(F)Cl)ccc3[nH]2)c1 (stereo not given),120 to 122 °C
20,Cc1cc(C(=O)C(F)(F)F)ccc1NC(=O)OC(C)(C)C,85 to 87 °C
21,CCCC(CCC)n1[nH]c(Cc2c(C)n(C(=O)c3ccc(Cl)cc3)c3ccc(OC)cc23)cc1=O,167 to 168 °C
22,CN1CC[C@@H]2CC(=O)c3cc(-c4ccccc4)ccc3[C@@H]2C1 (relative stereo),> 250 °C
23,Cc1cc(C)cc(OCC(O)CNc2nc(-c3ccccc3)nc3ccccc23)c1 (stereo not given),170 to 172 °C
24,COc1ccc(S(=O)(=O)Nc2c(Nc3ccccc3)ncnc2OC)cc1,159 to 160 °C
25,COC(=O)c1cc(OCC(=O)O)cc(C(=O)OC)c1[N+](=O)[O-],151 to 152 °C

row,Compound,melting point
1,COc1ccc2c(c1)CC[C@@H]1[C@@H]2CC[C@@]2(C)[C@H]1CCC21C=CCO1 (stereo not given in full),159 to 161 °C
2,COc1ccc(C=Cc2nc3c(c(=O)n(C)c(=O)n3C)n2C)cc1,> 320 °C
3,COC(=O)[C@H](CCCCNC(=O)c1csc(NC(=O)NCc2ccccc2)n1)NC(=O)OC(C)(C)C,166 °C
4,COc1nc(-c2ccc(F)cc2)c(-c2ccc(S(C)(=O)=O)cc2)cc1C#N,202 to 204 °C
5,Cn1nc(C(F)(F)F)n(-c2ccc(I)cc2Cl)c1=S,117 to 119 °C
6,O=C(Nc1cc2c(cn1)[nH]c1ccccc12)c1cccs1,109 to 125 °C
7,CC(C(=O)O)c1ccc2c(c1)CC(=O)c1ccccc1S2 (stereo not given),130 to 132 °C
8,COC(=O)c1ccc2sc(C)c(Br)c2c1,84 to 85 °C
9,O=C(O)CN1C(=O)CC1SCc1ccccc1 (stereo not given),110 °C
10,O=C1CCC(n2cnc3ccc(Cl)cc3c2=O)C(=O)N1 (stereo not given),302 to 305 °C
11,c1nc(-c2ccc3c(c2)OCO3)c2cc3c(cc2n1)OCO3,180 to 185 °C
12,COc1cc(Cl)cc(Cl)c1C=O,110 to 111 °C
13,CC1Cn2c(nc3c(cnn3C)c2=O)S1 (stereo not given),178 to 179 °C
14,NC(=O)c1[nH]cnc1OC(=O)c1ccccc1C(=O)OCc1ccccc1,122 to 124 °C
15,CN1CC(CCCl)N(C)c2nc3ccccc3n2C1=O (stereo not given),158 to 159 °C
16,Cc1cc(-c2ccc(C(F)(F)F)cc2)nc2ccnn12,89 to 90 °C
17,Cc1cccc(C)c1CNc1cc(C(=O)N(C)C)nc2c(C)c(C)n(Cc3ccccc3)c12,203 °C
18,C[C@@H]1S[C@@H](C(=O)Nc2ccc(CN3CCOCC3)cc2)Cc2cc3c(cc2C1=O)OCO3,172 to 174 °C
19,N#CCc1c(C(F)(F)F)cccc1C(F)(F)F,84.5 to 86 °C
20,O=c1[nH]c(=O)n(CCCCBr)c2cc(Cl)ccc12,180 to 182 °C
21,CCOC(=O)Cn1cc(C(=O)NCCN(C)C)c2nc3c(C)cccc3cc2c1=O,214 to 215 °C
22,CCC(CC)C(=O)O[C@H]1C[C@H](O)C=C2C=C[C@H](C)[C@H](CC[C@@H]3C[C@@H](O)CC(=O)O3)[C@H]21,158 °C
23,CN1C(=O)Cc2cccc(C(=O)c3ccccc3)c21,89 to 90.5 °C
24,CC(=NO)C1(c2ccc(Cl)c(Cl)c2)CCC1,120 to 121 °C
25,CCOC(=O)c1cc(C)cc(-c2ccc(N(C)C)cc2)n1,143 to 144 °C

# Source: a melting point compilation (Tetko et al.; mined from patent text by program, amines drawn as free bases though some values may be those of a salt)
